Reference: patent US20100099642A1, “TGF-BETA STIMULANT AND FURTHER AGENT TO REDUCE SIDE EFFECTS” (TCP Innovations Limited, priority 2007, published 2010)
Marks after values point to notes of the source that are not given here.

What was measured:
DBA/1 mice = assay: collagen-induced arthritis, footpad thickness in DBA/1 mice; format: in vivo, mouse; settings: Tamoxifen 1 mg/kg/day p.o, aspirin 30 mg/kg/day p.o, from the booster injection onwards
Method: Collagen-induced arthritis was induced in adult male DBA/1 mice as previously described (Courtenay et al. (1980) Nature 283:666-8). Adult (12 week old) male DBA/1 mice were divided into groups of six animals. Mice received 100 μg per mouse of bovine type II collagen (Sigma) in Freunds Complete Adjuvant (FCA) by the subcutaneous route, while a control group received an identical injection of type I collagen in FCA. Twenty-one days later, all groups of mice received an intraperitoneal booster injection containing 100 μg per mouse of the same collagen type as previously, but in the absence of adjuvant. […] Foodpad thickness was determined each day using a digital caliper EC1507 (Moore & Wright) accurate to 0.01 mm. The thickness of each footpad was determined three times on each day by a single operator blind to the treatment condition of the mouse, and the footpad thickness of each mouse on each day was reported as the mean for the three measurements for all four paws. Errors represent the standard error of the mean among the six animals in each group.

[1] = tested on: anti-collagen type II antibodies; assay: direct ELISA for anti-collagen type II antibodies in serum of collagen-induced arthritis mice; format: in vivo, mouse; settings: day 39, TMX 1 mg/kg/day, aspirin 30 mg/kg/day
Method: (1980) Nature 283:666-8). Adult (12 week old) male DBA/1 mice were divided into groups of six animals. […] Foodpad thickness was determined each day using a digital caliper EC1507 (Moore & Wright) accurate to 0.01 mm. The thickness of each footpad was determined three times on each day by a single operator blind to the treatment condition of the mouse, and the footpad thickness of each mouse on each day was reported as the mean for the three measurements for all four paws. Errors represent the standard error of the mean among the six animals in each group. A direct ELISA for anti-collagen type II antibodies was used as an alternative assessment of the autoimmune response.

tgfb2 mRNA = tgfb2 mRNA level by quantitative PCR in human aortic vascular smooth muscle cells; format: cell-based; settings: 24 hrs, normalised to TBP, vs vehicle
Method: (1995) Cardiovasc. Res. 29:848-55). […] The cells were then incubated for either 24 hrs or 72 hrs depending on the experiment. All treatment conditions were established in triplicate. The level of mRNA for tgfb1, tgfb2 and tgfb3 were estimated by quantitative PCR. The media was removed and RNA was carefully prepared using the Ambion RNAqueous4PCR kit (Ambion#1914) in accordance with the manufacturer's instructions. The purity of the RNA and the quantity was assessed spectrophotometrically. […] This analysis results in both a gel-like image as well as electrophoretic data. Indications of RNA degradation are: (a) decreasing ratio of ribosomal bands (b) additional peaks bellow the ribosomal bands (c) Decrease in overall RNA signal (d) shift towards shorter fragments. […] Next, the RNA was converted to cDNA using the ABI High-Capacity cDNA Archive Kit, in accordance with manufacturer's instructions. The qPCR assay was then set up as follow: all cDNA samples were diluted to 180 μl total volume using Molecular grade water. Samples were vortexed to ensure thorough mixing. cDNA was aliquoted into ABI 384 well plates using a multi-channel pipette, 4.5 μl of sample into each well. Samples were assayed in triplicate (that is, nine determinations in total were made for each condition, being three separate assays on each of three replicate culture wells). The assay mix and Universal Master Mix were prepared and aliquoted across the 384 well plates 5.5 μl in each well, using a single channel pipette. The final composition of each reaction (10 μl) being: Primer/Probe assay mix (×20)=0.5 μl; Universal Master Mix=5 μl; cDNA=4.5 μl. […] Quantitative PCR was performed using several primer/probe sets. […] In all quantitative PCR experiments, several additional controls were included: firstly, a control for each sample is run with no reverse transcription to ensure the mRNA sample is not contaminated with genomic DNA (although the manual design probe/primer sets were all selected to cross an exon/exon boundary, ensuring no detectable amplicon is produced from genomic DNA templates). […]

| SMILES | reduction of maximal collagen-II induced footpad swelling (DBA/1 mice) [%] | Pan IgG against bovine collagen II, median concentration in serum [1] [µg/mL] | IgG1 against bovine collagen II, median absorbance from the direct ELISA ([1]; neat serum) | IgG2a against bovine collagen II, median absorbance from the direct ELISA ([1]; neat serum) | IgG2b against bovine collagen II, median absorbance from the direct ELISA ([1]; neat serum) | IgG3 against bovine collagen II, median absorbance from the direct ELISA ([1]; neat serum) | Level of tgfb2 mRNA, estimated by qPCR (tgfb2 mRNA; 10 μM A) [fold-change] | Level of tgfb2 mRNA, estimated by qPCR (tgfb2 mRNA; 33 μM A) [fold-change] | Level of tgfb2 mRNA, estimated by qPCR (tgfb2 mRNA; 100 μM A) [fold-change] |
| --- | --- | --- | --- | --- | --- | --- | --- | --- | --- |
| CC/C(=C(\c1ccccc1)c1ccc(OCCN(C)C)cc1)c1ccccc1 [Tamoxifen] | 36 | 181 | <0.05* | 0.081* | 0.482* | 0.069* |  |  |  |
| CC(=O)Oc1ccccc1C(=O)O [Aspirin, acetylsalicylic acid] |  |  |  |  |  |  | 0.92 ± 0.10 | 1.00 ± 0.17 | 1.03 ± 0.16 |
